Results: article PMC3944389, “Differential Neuroprotective Effects of 5′-Deoxy-5′-Methylthioadenosine” (PLoS ONE, 2014)

Assays:
[1] = test system: rat mixed cultures of neurons and astrocytes; test: Oxygen-glucose deprivation (OGD) with iodoacetate, LDH release; assay type: cell-based; settings: IAA 20 and 50 µM; MTA 10 µM or 100 µM, APV 100 µM
Protocol: (§1) Finally, to prepare neuron-astrocyte co-cultures, neurons were resuspended in B27 Neurobasal medium plus 10% of foetal bovine serum (FBS) and then seeded onto a monolayer of astrocytes in 24-well plates at a density of 1–2×10^5 cells per well, the astrocytes having been prepared beforehand, as described elsewhere. One day later, the medium was replaced with B27-Neurobasal plus 10% FBS medium, and the cells were maintained at 37°C in 5% CO2. The cultures were used 8–9 days after plating. Neurons and astrocytes were identified with antibodies against microtubule-associated protein-2 and GFAP, respectively.
Ischemic damage was induced by incubating cell cultures for 1 h in a hyperbaric chamber in a nitrogen-saturated buffer containing: 130 mM NaCl, 5.4 mM KCl, 0.1323 mM CaCl2, 0.26 mM NaHCO3, 0.8 mM MgCl2, 1.18 mM NaH2PO4, 10 mM sucrose (OGD plus sucrose) and iodoacetate (IAA, 20 or 50 µM). IAA is a glycolytic blocker typically used in OGD experiments to simulate ischemic conditions. After the insult, the cells were incubated under normoxic conditions for an additional 24 h in the presence of glucose but in the absence of IAA. Distinct reagents were added during ischemia to evaluate their neuroprotective activity by assessing cell viability and cell death in the cultures.
The cell status was assessed by measuring the release of lactate dehydrogenase (LDH) from dead cells. LDH was measured spectrophotometrically at 490 nm on a 96-well plate reader using the Cytotox 96 Kit according to the manufacturer's instructions (Promega). The LDH release was defined by the ratio of LDH released to the total LDH present in the cell at the beginning of the treatment.

[2] = Parallel artificial membrane permeability assay (PAMPA), BBB model, passive diffusion; assay type: in vitro ADME
Protocol: The PAMPA assay was used to determine the capacity of compounds to cross a blood brain barrier (BBB) model by passive diffusion, measuring the effective permeability of the compounds at an initial concentration of 200 µM. The buffer solution was prepared from a concentrated commercial solution (Pion, Billerica, MA, US) according to the manufacturer's instructions and the pH was adjusted to 7.4 with 0.5 M NaOH. The compound of interest was dissolved in the buffer solution (200 µM), the PAMPA sandwich was separated and the donor well was filled with 195 µL of the compound of interest. The acceptor plate and donor plate were brought together, with the underside of the membrane in contact with the buffer. An 4 µL aliquot of the phospholipid mixture (20 mg/ml) in dodecane was added to the filter of each well, and then 200 µL of buffer solution was added to each acceptor well. The plate was covered and incubated for 4 h at RT in a saturated humidity atmosphere with agitation and with 25 µm of an unstirred water layer in the Gut-Box (Pion). After 4 h, a 150 µL/well sample from the donor plate and a 150 µL/well sample from the acceptor plate were transferred to HPLC vials. Then, 100 µL from acceptor well, 5 µL from the donor well and 5 µL from the t0 samples were injected into an HPLC reverse-phase symmetry C18 column (150 mm×4.6 mm×5 µm, 100 Å; Waters). Transport was confirmed by HPLC mass spectrometry and matrix-assisted laser desorption/ionization time-of-flight (MALDI-TOF) spectrometry to ensure the compound had maintained its integrity. The phospholipid mixture used was a porcine polar brain lipid extract composed of 12.6% phosphatidylcholine (PC), 33.1% phosphatidylethanolamine (PE), 18.5% phosphatidylserine (PS), 4.1% phosphatidylinositol (PI), 0.8% phosphatidic acid and 30.9% of other compounds.

[3] = test system: rat mixed astrocyte-neuron cultures; test: NMDA-induced caspase 3 activation in mixed astrocyte-neuron cultures; assay type: cell-based; settings: pre- or co-treatment; MTA 250 µM, MK-801 10 µM; 300 µM NMDA
Protocol: as §1
To assay N-methyl–D-aspartate (NMDA) excitotoxicity, primary cultures were seeded in 24-well plates at 15×10^4 cells/well, cultured for 7 days in vitro, and treated for different times with the vehicle alone (dimethyl sulfoxide (DMSO) 1%), NMDA (300 µM), NMDA (300 µM) + MTA (250 µM) or NMDA (300 µM) + MK-801, a NMDA receptor antagonist (10 µM). […] Caspase 3 activity was measured in these lysates one hour after the NMDA addition.
Cortical neurons, or mixed cortical neurons and glia, were seeded in poly-L-lysine-coated 6-well culture plates during 7 days in vitro before start the set of experiments. […] The extracts were then centrifuged at 5,000×g for 10 min at 4°C and the protein content was determined by the BCA protein assay. […]

[4] = test system: C57Bl mice treated with MPTP; test: MPTP mouse model of Parkinson's disease, stereological counting of TH+ neurons; assay type: in vivo; settings: MTA 30 mg/kg, MSX-3 10 mg/kg (legend: 9 mg/kg), alone or combined; MPTP 30 mg/kg i.p. 5 days
Protocol: 12-week-old male C57Bl mice from Charles River (Barcelona, Spain) were injected i.p. with 30 mg/kg 1-methyl-4-phenyl-1,2,3,6-tetrahydropyridine (MPTP, Sigma-Aldrich) on five consecutive days. Subsequently, MTA (30 mg/kg) and/or the A2A adenosine receptor (A2AR, 10 mg/kg) antagonist, MSX-3 (Sigma-Aldrich), was administered one day before starting MPTP treatment and 1 h after each MPTP injection (n = 6 in each experimental group). We used mice in the MPTP model because rats are resistant to systemic MPTP administration and thus, the rat MPTP model requires stereotaxic MPTP injection directly into the nigrostriatal fibers. […]
The reference volume was calculated according to Cavalieri principles from images obtained with a 2× objective using a point count array. The cross-sectional area of the nucleus was measured and the reference volume (Vr) for the entire nucleus was estimated using the following equation: [drawing 1] where T is the thickness of the sections, a/p is the area of each point and Pi is the number of points that landed within the area. The region of interest to estimate the area was outlined at low magnification (4×), and the number of labeled neurons was calculated under 100× magnification (with oil immersion) using randomized meander sampling and the optical dissector methods. […]

[5] = test system: co-culture of bovine-brain endothelial cells (BBECs) and newborn rat astrocytes; test: In vitro cell model of transport across the BBB; assay type: in vitro ADME
Protocol: A in vitro cell model of BBB permeability was established using a co-culture of bovine-brain endothelial cells (BBECs) and newborn rat astrocytes. The cells were first cultured in 24-well (Transwell^R) permeable supports with a surface area of 0.33 cm^2 and a pore size of 0.4 µm (Corning), the upper surface of which was coated with collagen type IV and fibronectin. The inserts were then placed upside down in a large petri dish, and 40 µL of a suspension (containing approximately 45,000 astrocytes) was placed on the bottom of each filter. The petri dish was incubated at 37°C for 1 h, and 40 µL of fresh DMEM+S was added to the bottom of each filter every 15 min. The inserts were then transferred back to the plate and incubated at 37°C in 5% CO2 for 3 d. Then, 2 h before seeding the BBECs, the medium was replaced by DMEM+S supplemented with 125 µg/mL heparin and 2 h later, the cells were seeded onto the inserts (45,000 cells per filter). The plate was incubated at 37°C in 5% CO2 for 3 more days, after which the medium was replaced by DMEM+S supplemented with cyclic adenosine monophosphate (cAMP) and RO-20-1724, and kept at 37°C in 5% CO2. On day 8 of the co-culture, the transendothelial electrical resistance (TEER) was measured to determine whether the system was ready for transport studies. To validate the maturity of the model, permeability assays with lucifer yellow (LY) were performed in parallel as a marker of the integrity of the in vitro barrier. During the permeability assay, the samples were co-incubated with LY (20 µM) to assess the integrity of the cellular monolayer during the assay.

N[C@H](CCCP(=O)(O)O)C(=O)O [APV, (2R)-amino-5-phosphonovaleric acid, reference compound]
protection against OGD (cell death, LDH release) [1]: similar

NC(=O)N1c2ccccc2C=Cc2ccccc21 [Carbamazepine]
% Membrane retention ([2]; 200 µM, pH 7.4, 4 h at RT): 0.5% | Papp at 4 h, 200 µM ([2]; 200 µM, pH 7.4, 4 h at RT, read-out: Pe x 10^−6): 11.5 ×10⁻⁶ cm/s

C[C@]12N[C@H](Cc3ccccc31)c1ccccc12 [MK-801, reference compound]
caspase 3 activation induced by NMDA [3]: reverted to basal levels

C#CCn1c(=O)c2c(nc(/C=C/c3cccc(OC)c3)n2C)n(CCCOP(=O)([O-])[O-])c1=O.[Na+].[Na+] [MSX-3, reference compound]
neuroprotection: TH+ neurons in the substantia nigra [4]: not statistically significant

CC(C)NCC(O)COc1cccc2ccccc12 (stereo not drawn) [Propanolol, propranolol]
Membrane retention [2]: 30% | % Membrane retention ([2]; 200 µM, pH 7.4, 4 h at RT): 30.2% | Pe x 10^−6 (cm/s) ([2]; 200 µM, pH 7.4, 4 h at RT): 10.3 x 10^−6 cm/s

Apo E: control compound in the in vitro cell model of BBB
Pe x 10^−6 (cm/s) [5]: 2.2 x 10^−6 cm/s | effective permeability coefficient (Pe) [5]: 2.2 ×10⁻⁶ cm/s

Transferrin: control compound in the in vitro cell model of BBB
Pe x 10^−6 (cm/s) [5]: 8.2 x 10^−6 cm/s | effective permeability coefficient (Pe) [5]: 8.2 ×10⁻⁶ cm/s
